US20240368106A1, “HYDROXY AND ALKOXY COUMARINS AS MODULATORS OF POLRMT” (Pretzel Therapeutics, Inc., priority 2021, published 2024)

Each compound was assayed against POLRMT (Homo sapiens (Human), UniProt O00411) (assay: homogeneous TR-FRET assay of mitochondrial transcription (inhibition of POLRMT)). Conditions: 7.5 nM POLRMT, 15 nM TFB2M, 30 nM TFAM, 0.5 nM DNA template, 500 μM NTPs, 37° C., 60 minutes.
Format: biochemical
Description: The inhibitory activity of the compounds of the present invention against POLRMT were determined by assays based on Bergbrede, T., et al., “An adaptable high-throughput technology enabling the identification of specific transcription modulators,” SLAC Discov., 22, 378-386 (2017).
The ability of some compounds of the present invention to inhibit POLRMT were determined in a homogeneous TR-FRET Assay using high-throughput screening in a 384-well plate format. This method is used to monitor the activity of mitochondrial transcription through measurement of its product, a 407 bp long RNA transcript. Detection of the product is facilitated by hybridization of two DNA-oligonucleotide probes to specific and adjacent sequences within the RNA product sequence. Upon annealing of the probes, two fluorophores are coupled directly to an acceptor nucleotide probe (ATT0647, 5′), or introduced via a coupled streptavidin with a biotinylated donor nucleotide probe (Europium cryptate) that is brought into sufficient proximity to serve as a fluorescence-donor-acceptor pair. Thus, a FRET signal at 665 nm is generated upon excitation at 340 nm.
Proteins used as transcription factors (POLRMT: NP_005026.3, TFAM: NP_003192.1, TFB2M: NP_071761.1) are diluted from their stocks to working concentrations of 1 μM, 20 μM and 4 μM respectively, in a dilution buffer containing 20 mM Tris-HCl (pH 8.0), 200 mM NaCl, 10% (v/v) glycerol, 1 mM Dithiothreitol (DTT), 0.5 mM EDTA.
DNA template is a pUC18 plasmid with the mitochondrial light strand promotor sequence (1-477) cloned between HindIII and BamHI sites. The DNA template is restriction linearized proximal to the promotor 3′-end (pUC-LSP). The reaction mixture (10 uL) containing 7.5 nM POLRMT, 15 nM of TFB2M, 30 nM of TFAM, 0.5 nM of DNA template and 500 μM nucleotide triphosphate mix (NTPs) in a reaction buffer (containing 10 mM Tris-HCl (pH 7.5), 10 mM MgCl2, 40 mM NaCl, 10 mM DTT, 0.005% (w/v) Tween-20, 160 units/ml Rnase inhibitor and 0.1 mg/mL BSA) are dispensed to compounds in microplates, using a Thermo Multidrop® dispenser, and incubated at 37° C. in a VWR INCU-Line incubator for 60 minutes after mixing. No nucleotide triphosphate mix is added to negative control samples. Microplates with compounds to be tested in the assay are prepared from 10 mM compound stocks in 100% DMSO, equal amounts of DMSO without any compound are added to positive control and negative control samples.
During the incubation, a mix of the detection reagents is prepared in a buffer such that the enzymatic reaction is terminated due to chelating of Mg-ions and increased ionic strength, containing 50 mM Tris-HCl (pH 7.5), 700 mM NaCl, 20 mM EDTA, and 0.010% (w/v) Tween-20. Europium-streptavidin is pre-incubated with a 200-fold molar excess of a random sequence oligonucleotide to block unspecific binding of oligo, for two hours at ambient temperature in the dark. Afterwards, the blocked Europium-streptavidin is kept on ice until use.
At the end of the enzymatic reaction time, 5 μL detection oligo mix in the detection buffer is added, and assay plates are mixed and kept at ambient temperature for one hour, protected from light. The concentration of the Acceptor nucleotide oligo (e.g., ATTO647N-5′-[…]-3′) and Donor nucleotide oligo (e.g., bio-5′-AACACATCTCT(-bio)GCCAAACCCCA-bio-3′) in each assay well is 1 nM, and 3 nM, respectively.
After incubation with oligo mix, 5 μL of pre-blocked Europium-streptavidin reagent is dispensed to each assay well, assay plates are again mixed and kept at ambient temperature for one hour, protected from light.
The generated signal is measured with BMG Pherastar microtiter plate reader with a TRF light unit, using excitation at 340 nm, an integration time of 200 μs, and a delay time of 100 μs, before detection at 620 nm and 665 nm. The ratio of donor- and acceptor-fluorescence is used as a measure of the generated transcript product (i.e. enzymatic activity).

POLRMT, sequence (O00411 42-1230): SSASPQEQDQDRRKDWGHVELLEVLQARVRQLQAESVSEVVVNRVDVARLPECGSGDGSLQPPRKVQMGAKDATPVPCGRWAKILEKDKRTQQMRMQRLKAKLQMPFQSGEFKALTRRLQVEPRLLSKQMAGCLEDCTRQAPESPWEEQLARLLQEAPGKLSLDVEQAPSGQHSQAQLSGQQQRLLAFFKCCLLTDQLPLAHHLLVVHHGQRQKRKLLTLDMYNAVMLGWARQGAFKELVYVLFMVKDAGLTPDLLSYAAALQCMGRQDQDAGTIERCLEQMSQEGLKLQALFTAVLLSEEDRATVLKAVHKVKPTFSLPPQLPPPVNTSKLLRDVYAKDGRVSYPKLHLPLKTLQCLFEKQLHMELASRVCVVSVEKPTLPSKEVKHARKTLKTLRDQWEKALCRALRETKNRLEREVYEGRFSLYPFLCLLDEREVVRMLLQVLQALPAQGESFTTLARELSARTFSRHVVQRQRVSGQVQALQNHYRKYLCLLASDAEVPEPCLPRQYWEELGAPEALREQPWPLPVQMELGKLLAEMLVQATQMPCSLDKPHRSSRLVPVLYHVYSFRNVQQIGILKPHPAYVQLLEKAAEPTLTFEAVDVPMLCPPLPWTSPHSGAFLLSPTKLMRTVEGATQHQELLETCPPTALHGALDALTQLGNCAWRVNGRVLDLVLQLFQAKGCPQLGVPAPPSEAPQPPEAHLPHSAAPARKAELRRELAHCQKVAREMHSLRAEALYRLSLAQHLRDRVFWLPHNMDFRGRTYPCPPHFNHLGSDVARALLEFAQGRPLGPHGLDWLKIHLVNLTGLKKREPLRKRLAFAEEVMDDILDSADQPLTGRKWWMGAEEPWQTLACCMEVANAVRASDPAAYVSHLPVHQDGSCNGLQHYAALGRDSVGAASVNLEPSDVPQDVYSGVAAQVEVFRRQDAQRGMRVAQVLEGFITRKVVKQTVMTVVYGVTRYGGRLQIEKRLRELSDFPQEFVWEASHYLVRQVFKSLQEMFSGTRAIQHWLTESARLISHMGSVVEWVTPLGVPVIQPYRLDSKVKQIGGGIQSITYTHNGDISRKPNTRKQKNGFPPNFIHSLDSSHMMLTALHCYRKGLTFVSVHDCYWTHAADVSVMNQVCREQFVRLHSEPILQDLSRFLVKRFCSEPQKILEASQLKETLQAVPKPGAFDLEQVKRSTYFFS

Row | Structure (SMILES) | IC50 [nM]
1 | Cc1ccccc1-c1cc(=O)oc2cc(O)cc(C)c12 [Example 37, 7-hydroxy-5-methyl-4-(o-tolyl)-2H-chromen-2-one] | 2000
2 | COc1ccccc1-c1cc(=O)oc2cc(O)ccc12 [Example 50, 7-hydroxy-4-(2-methoxyphenyl)-2H-chromen-2-one] | 10000
3 | CC(=O)N1CCC(Oc2ccc3c(-c4ccc(F)cc4Cl)cc(=O)oc3c2)CC1 [Example 56, 7-((1-acetylpiperidin-4-yl)oxy)-4-(2-chloro-4-fluorophenyl)-2H-chromen-2-one] | 8000
4 | CC(=O)N1CCCC(Oc2ccc3c(-c4ccc(F)cc4Cl)cc(=O)oc3c2)C1 (stereo not drawn) [Example 57, 7-((1-acetylpiperidin-3-yl)oxy)-4-(2-chloro-4-fluorophenyl)-2H-chromen-2-one] | 4000
5 | Cc1ccccc1-c1cc(=O)oc2cc(OC(C)C)cc(C)c12 [Example 58, 7-isopropoxy-5-methyl-4-(o-tolyl)-2H-chromen-2-one] | 400
6 | CC(=O)N1CC[C@H](Oc2ccc3c(-c4ccccc4C)cc(=O)oc3c2)C1 [Example 61, (S)-7-((1-acetylpyrrolidin-3-yl)oxy)-4-(o-tolyl)-2H-chromen-2-one] | 28000
7 | CC(=O)N1CC[C@@H](Oc2ccc3c(-c4ccccc4C)cc(=O)oc3c2)C1 [Example 62, (R)-7-((1-acetylpyrrolidin-3-yl)oxy)-4-(o-tolyl)-2H-chromen-2-one] | 19000
8 | Cc1ccccc1-c1cc(=O)oc2cc(O[C@H]3CCN(C)C3)ccc12 [Example 63, (S)-7-((1-methylpyrrolidin-3-yl)oxy)-4-(o-tolyl)-2H-chromen-2-one] | 90000
9 | COCC(Oc1ccc2c(-c3ccccc3C)cc(=O)oc2c1)C(=O)O (stereo not drawn) [Example 65, 3-methoxy-2-((2-oxo-4-(o-tolyl)-2H-chromen-7-yl)oxy)propanoic acid] | 800
10 | Cc1ccccc1-c1cc(=O)oc2cc(O[C@@H]3CCN(C)C3)ccc12 [Example 66, (R)-7-((1-methylpyrrolidin-3-yl)oxy)-4-(o-tolyl)-2H-chromen-2-one] | 42000
11 | COC[C@H](Oc1ccc2c(-c3ccccc3C)cc(=O)oc2c1)C(N)=O [Example 67, (S)-3-methoxy-2-((2-oxo-4-(o-tolyl)-2H-chromen-7-yl)oxy)propenamide] | 16000
12 | COC[C@@H](Oc1ccc2c(-c3ccccc3C)cc(=O)oc2c1)C(N)=O [Example 68, (R)-3-methoxy-2-((2-oxo-4-(o-tolyl)-2H-chromen-7-yl)oxy)propenamide] | 700
13 | CNC(=O)[C@H](COC)Oc1ccc2c(-c3ccccc3C)cc(=O)oc2c1 [Example 69, (S)-3-methoxy-N-methyl-2-((2-oxo-4-(o-tolyl)-2H-chromen-7-yl)oxy)propenamide] | 17000
14 | CNC(=O)[C@@H](COC)Oc1ccc2c(-c3ccccc3C)cc(=O)oc2c1 [Example 70, (R)-3-methoxy-N-methyl-2-((2-oxo-4-(o-tolyl)-2H-chromen-7-yl)oxy)propenamide] | 900
15 | COC[C@@H](Oc1ccc2c(-c3ccccc3C)cc(=O)oc2c1)C(=O)N(C)C [Example 71, (R)-3-methoxy-N,N-dimethyl-2-((2-oxo-4-(o-tolyl)-2H-chromen-7-yl)oxy)propenamide] | 100
16 | COC[C@H](Oc1ccc2c(-c3ccccc3C)cc(=O)oc2c1)C(=O)N(C)C [Example 72, (S)-3-methoxy-N,N-dimethyl-2-((2-oxo-4-(o-tolyl)-2H-chromen-7-yl)oxy)propenamide] | 10000
17 | COCC(Oc1ccc2c(-c3ccc(F)cc3Cl)cc(=O)oc2c1)C(=O)O (stereo not drawn) [Example 73, 2-((4-(2-chloro-4-fluorophenyl)-2-oxo-2H-chromen-7-yl)oxy)-3-methoxypropanoic acid] | 3000
18 | COCC(Oc1ccc2c(-c3ccccc3Cl)cc(=O)oc2c1)C(=O)O (stereo not drawn) [Example 84, 2-((4-(2-chlorophenyl)-2-oxo-2H-chromen-7-yl)oxy)-3-methoxypropanoic acid] | 2000
19 | CCOCC(Oc1ccc2c(-c3ccccc3C)cc(=O)oc2c1)C(N)=O (stereo not drawn) [Example 99] | 4000
20 | CCOCC(Oc1ccc2c(-c3ccccc3C)cc(=O)oc2c1)C(N)=O (stereo not drawn) [Example 100] | 900
21 | Cc1ccccc1-c1cc(=O)oc2cc(OC(CO)C(=O)O)ccc12 (stereo not drawn) [Example 102, 3-hydroxy-2-((2-oxo-4-(o-tolyl)-2H-chromen-7-yl)oxy)propanoic acid] | 1000
22 | Cc1ccccc1-c1cc(=O)oc2cc(O[C@@H](CO)C(=O)O)ccc12 [Example 103, (S)-3-hydroxy-2-((2-oxo-4-(o-tolyl)-2H-chromen-7-yl)oxy)propanoic acid] | 16000
23 | COC(=O)C(COC(F)(F)F)Oc1ccc2c(-c3ccccc3C)cc(=O)oc2c1 (stereo not drawn) [Example 105, methyl 2-((2-oxo-4-(o-tolyl)-2H-chromen-7-yl)oxy)-3-(trifluoromethoxy)propanoate] | 40
24 | Cc1ccccc1-c1cc(=O)oc2cc(OC(COC(F)(F)F)C(=O)O)ccc12 (stereo not drawn) [Example 106, 2-((2-oxo-4-(o-tolyl)-2H-chromen-7-yl)oxy)-3-(trifluoromethoxy)propanoic acid] | 30

The remaining lines, values ahead:

Row | IC50 [nM] | Structure (SMILES)
25 | 6000 | CCCOc1ccc2c(-c3ccccc3OC)cc(=O)oc2c1 [Example 35, 4-(2-methoxyphenyl)-7-propoxy-2H-chromen-2-one]
26 | 50000 | CCCOc1ccc2c(-c3cccc4c3OCCO4)cc(=O)oc2c1 [Example 36, 4-(2,3-dihydrobenzo[b][1,4]dioxin-5-yl)-7-propoxy-2H-chromen-2-one]
27 | 400 | CCCOc1ccc2c(-c3csc(C)c3C)cc(=O)oc2c1 [Example 51, 4-(4,5-dimethylthiophen-3-yl)-7-propoxy-2H-chromen-2-one]
28 | 17000 | CCCOc1ccc2c(-c3c(C)noc3C)cc(=O)oc2c1 [Example 52, 4-(3,5-dimethylisoxazol-4-yl)-7-propoxy-2H-chromen-2-one]
29 | 800 | CCCOc1ccc2c(-c3cccnc3C)cc(=O)oc2c1 [Example 53, 4-(2-methylpyridin-3-yl)-7-propoxy-2H-chromen-2-one]
30 | 3000 | CCCOc1ccc2c(-c3ccncc3C)cc(=O)oc2c1 [Example 54, 4-(3-methylpyridin-4-yl)-7-propoxy-2H-chromen-2-one]
31 | 5000 | CCCOc1ccc2c(-c3cnc(Cl)cc3C)cc(=O)oc2c1 [Example 55, 4-(6-chloro-4-methylpyridin-3-yl)-7-propoxy-2H-chromen-2-one]
32 | 54000 | CCCOc1ccc2c(-c3ncccc3C)cc(=O)oc2c1 [Example 64, 4-(3-methylpyridin-2-yl)-7-propoxy-2H-chromen-2-one]
33 | 400 | COC[C@@H](Oc1ccc2c(-c3ccccc3C)cc(=O)oc2c1)C(=O)O [Example 101, (R)-3-methoxy-2-((2-oxo-4-(o-tolyl)-2H-chromen-7-yl)oxy)propanoic acid]
34 | 2000 | COC[C@H](Oc1ccc2c(-c3ccccc3C)cc(=O)oc2c1)C(=O)O [Example 104, (S)-3-methoxy-2-((2-oxo-4-(o-tolyl)-2H-chromen-7-yl)oxy)propanoic acid]
35 | 30 | Cc1cccc(C)c1-c1cc(=O)oc2cc(OCC#N)ccc12 [Example 107, 2-((4-(2,6-dimethylphenyl)-2-oxo-2H-chromen-7-yl)oxy)acetonitrile]
36 | 200 | Cc1ccccc1-c1cc(=O)oc2cc(OCC(N)=O)ccc12 [Example 108, 2-((2-oxo-4-(o-tolyl)-2H-chromen-7-yl)oxy)acetamide]
